Experimental data: US6489098B1, “Means and methods for monitoring nucleoside reverse transcriptase inhibitor antiretroviral therapy and guiding therapeutic decisions in the treatment of HIV/AIDS” (ViroLogic, Inc., priority 1998, dated 2002)
Where “and” joins values, the source holds several entries; their conditions need not be identical. Identical values can stand only once. Entries after “also recorded” stand apart in the source; their conditions may differ.

How the values were obtained:
[1] = test system: HIV-1 RT mutant resistance test vector A62V+T69SSA+V75I; experiment: Phenotypic susceptibility assay, site directed RTV A62V+T69SSA+V75I; type: cell-based; conditions: for Average fold reduction in susceptibility: RTV with 62 + 69 + 751 (A62V, T69SSA, V75I), 1 replicate; for effect on susceptibility (words): RTV with A62V+T69SSA+V75I
Method: (§1) Resistance tests were carried out with resistance test vectors using two host cell types. Resistance test vector viral particles were produced by a first host cell (the resistance test vector host cell) that was prepared by transfecting a packaging host cell with the resistance test vector and the packaging expression vector. The resistance test vector viral particles were then used to infect a second host cell (the target host cell) in which the expression of the indicator gene is measured.
(§2) The resistance test vectors containing a functional luciferase gene cassette were constructed and host cells were transfected with the resistance test vector DNA. The resistant test vectors contained patient-derived reverse transcriptase and protease sequences that were either susceptible or resistant to the antiretroviral agents, such as nucleoside reverse transcriptase inhibitors, non-nucleoside reverse transcriptase inhibitors and protease inhibitors. The resistance test vector viral particles produced by transfecting the resistance test vector DNA into host cells, either in the presence or absence of protease inhibitors, were used to infect target host cells grown either in the absence of NRTI or NNRTI or In the presence of increasing concentrations of the drug. The amount of luciferase activIty produced in infected target host cells in the presence of drug was compared to the amount of luciferase produced in infected target host cells in the absence of drug. Drug resistance was measured as the amount of drug required to inhibit by 50% the luciferase activity detected in the absence of drug (Inhibitory concentration 50%, IC50). The IC50 values were determined by plotting percent drug inhibition vs. log 10 drug concentration.
(§3) Host cells were seeded in 10-cm-diameter dishes and were transfected several days after plating with resistance test vector plasmid DNA and the envelope expression vector. Transfections were performed using a calcium-phosphate precipitation procedure. The cell culture media containing the DNA precipitate was replaced with fresh medium, from one to 24 hours, after transfection. Cell culture media containing resistance test vector viral particles was harvested one to four days after transfection and was passed through a […] filter before being stored at −80° C. HIV capsid protein (p24) levels in the harvested cell culture media were determined by an EIA method as described by the manufacturer (SIAC; Frederick, Md.). Before infection, target cells (293 and 293/T) were plated in cell culture media. Control infections were performed using cell culture media from mock transfections (no DNA) or transfections containing the resistance test vector plasmid DNA without the envelope expression plasmid. One to three or more days after infectIon the media was removed and cell lysis buffer (Promega) was added to each well. Cell lysates were assayed for luciferase activity (FIG. 3). The inhibitory effect of the drug was determined using the following equation:
(§4) % luciferase inhibition=1−(RLUluc[drug]÷RLUluc)×100
(§5) where RLUluc [drug] is the relative light unit of luciferase activity in infected cells in the presence of drug and RLUluc is the Relative Light Unit of luciferase activity in infected cells in the absence of drug. IC50 values were obtained from the sigmoidal curves that were generated from the data by plotting the percent inhibition of luciferase activity vs. the log 10 drug concentration. The drug inhibition curves are shown in (FIG. 3).
(§6) Genotypic changes that are observed to correlate with changes in phenotypic patterns of drug susceptibility are evaluated by construction of resistance test vectors containing the specific mutation on a defined, wild-type (drug susceptible) genetic background. Mutations may be incorporated alone and/or in combination with other known drug resistance mutations that are thought to modulate the susceptibility of HIV to a certain drug or class of drugs. […]

[2] = test system: HIV-1 RT mutant resistance test vector 41 + 215 (M41L and T215Y); experiment: Phenotypic susceptibility assay, site directed RTV 41 + 215; type: cell-based; conditions: RTV with 41 + 215; 4 replicates
Method: as §1, §2, §3, §4, §5, §6

[3] = test system: HIV-1 RT mutant resistance test vector 41 + 184 + 215; experiment: Phenotypic susceptibility assay, site directed RTV 41 + 184 + 215; type: cell-based; conditions: RTV with 41 + 184 + 215; 3 replicates
Method: as §1, §2, §3, §4, §5, §6

[4] = test system: patient RTV-621, RTV-285, RTV-690, RTV-770 and RTV-771 (T69SSA, T69SSG, T69SSS); experiment: Phenotypic susceptibility assay, patient isolates with T69SSX mutations/insertions; type: cell-based, HIV-1; conditions: for susceptibility compared to wild-type control RTV: patient samples with insertions at 69
Method: In these experiments patient-derived segment(s) corresponding to the HIV protease and reverse transcriptase coding regions were either patient-derived segments amplified by the reverse transcription-polymerase chain reaction method (RT-PCR) using viral RNA isolated from viral particles present in the serum of HIV-infected individuals or were mutants of wild type HIV-1 made by site directed mutagenesis of a parental clone of resistance test vector DNA. Isolation of viral RNA was performed using standard procedures (e.g. RNAgents Total RNA Isolation System, Promega, Madison Wis. or RNAzol, Tel-Test, Friendswood, Tex.). The RT-PCR protocol was divided into two steps. A retroviral reverse transcriptase [e.g. Moloney MuLV reverse transcriptase (Roche Molecular Systems, Inc., Branchburg, N.J.), or avian myeloblastosis virus (AMV) reverse transcriptase, (Boehringer Mannheim, Indianapolis, Ind.)] was used to copy viral RNA into cDNA. The cDNA was then amplified using a thermostable DNA polymerase [e.g. Taq (Roche Molecular Systems, Inc., Branchburg, N.J.), Tth (Roche Molecular Systems, Inc., Branchburg, N.J.), PrimeZyme (isolated from Thermus brockianus, Biometra, Gottingen, Germany)] or a combination of thermostable polymerases as described for the performance of “long PCR” (Barnes, W. M., (1994) Proc. Natl. Acad. Sci, USA 91, 2216-2220) [e.g. Expand High Fidelity PCR System (Taq+Pwo), (Boehringer Mannheim. Indianapolis, Ind.) OR GeneAmp XL PCR kit (Tth+Vent), (Roche Molecular Systems, Inc., Branchburg, N.J.)].
Resistance test vectors incorporating the “test” patient-derived segments were constructed as described in PCT International Application No. PCT/US97/01609, filed Jan. 29, 1997 using an amplified DNA product of 1.5 kB prepared by RT-PCR using viral RNA as a template and oligonucleotides PDSApa (1) and PDSAge (2) as primers, followed by digestion with ApaI and AgeI or the isoschizimer PINAI. To ensure that the plasmid DNA corresponding to the resultant resistance test vector comprises a representative sample of the HIV viral quasi-species present in the serum of a given patient, many (>100) independent E. coli transformants obtained in the construction of a given resistance test vector were pooled and used for the preparation of plasmid DNA.
as §1
as §2, with “The IC50 values were determined by plotting percent drug inhibition vs. log 10 drug concentration.” left out

Row | SMILES | Average fold reduction in susceptibility [1] | effect on susceptibility (words) [1] | Average fold reduction in susceptibility [2] [fold] | Average fold reduction in susceptibility [3] [fold] | fold reduced susceptibility ([4]; four patient viruses with T69SSX mutations/insertions (FIG. 5)) | susceptibility compared to wild-type control RTV [4]
1 | Cc1cn([C@H]2C=C[C@@H](CO)O2)c(=O)[nH]c1=O [d4T, stavudine] | 1.40 fold | did not reduce d4T susceptibility more than the T69SSA mutation alone | 1.61 | 1.18 | 2-10 fold | decrease in susceptibility to d4T; also recorded: significant reduction in d4T susceptibility; also recorded: decreased susceptibility
2 | O=c1[nH]cnc2c1ncn2[C@H]1CC[C@@H](CO)O1 [ddI, didanosine] | 1.17 fold | – | 1.09 | 1.35 | – | decreased susceptibility
3 | Cc1cn([C@H]2C[C@H](N=[N+]=[N-])[C@@H](CO)O2)c(=O)[nH]c1=O [AZT, zidovudine] | 2 fold and 0.71 fold | completely suppressed the reduced AZT susceptibility; also recorded: completely suppressed the six-fold AZT resistance | 17.82 | 2.77 | – | decreased susceptibility
4 | Nc1ccn([C@H]2CC[C@@H](CO)O2)c(=O)n1 [ddC, zalcitabine] | 1.89 fold | – | 1.21 | 1.73 | – | decreased susceptibility
5 | Nc1nc(NC2CC2)c2ncn([C@H]3C=C[C@@H](CO)C3)c2n1 [ABC, abacavir] | 2.56 fold | – | 1.68 | 3.02 | – | decreased susceptibility
